In experiment [1] the test system is A-375. Description: Cytotoxicity against human A375 cells after 48 hrs by SRB assay. The class given is functional, cell-based. The note with it: A-375, 48 h. On the technique in general: The SRB assay estimates cell density from bound dye.
The subject of experiment [2] is LNCaP. Nature of the experiment: Cytotoxicity against human LNCAP cells after 96 hrs by SRB assay.
The subject of experiment [3] is PC-3. Nature of the experiment: Cytotoxicity against human PC3 cells after 96 hrs by SRB assay. The settings on record: PC-3, 96 h.
Experiment [4] has as its system DU-145. Description: Cytotoxicity against human DU145 cells after 96 hrs by SRB assay. The note with it: DU-145, 96 h.
Experiment [5] concerns PPC-1. Nature of the experiment: Cytotoxicity against human PPC1 cells after 96 hrs by SRB assay.
Experiment [6] is described as follows: Cytotoxicity against mouse B16-F1 cells after 48 hrs by SRB assay. The class given is functional, cell-based. The settings on record: B16-F1, 48 h.

By IC50 is commonly meant the point on the concentration scale where inhibition reaches its midpoint. Low readings indicate higher potency, high ones lower potency. For the molecule `COc1cc(NC(=O)[C@@H]2CSC(c3ccccc3)=N2)cc(OC)c1OC`, the IC50 was 22.8 µM in experiment [1]; > 20 µM in experiment [2] (Homo sapiens, LNCaP, 96 h); > 20 µM in experiment [3]; > 20 µM in experiment [4]; 5.3 µM in experiment [5] (Homo sapiens, PPC-1, 96 h); 38.3 µM in experiment [6].

Consider `COc1cc(C(=O)c2csc(-c3ccc(C#N)cc3)n2)cc(OC)c1OC`, for which the IC50 in experiment [1] worked out at 0.059 µM; in experiment [2] (Homo sapiens, LNCaP, 96 h), 0.015 µM; in experiment [3], 0.03 µM; in experiment [4] it was 0.052 µM; in experiment [5] (Homo sapiens, PPC-1, 96 h), 0.019 µM.

In the case of `COc1cc(C(=O)c2csc(-c3ccc(Br)cc3)n2)cc(OC)c1OC`, the IC50 in experiment [1] was 0.013 µM; in experiment [2] (Homo sapiens, LNCaP, 96 h), 0.044 µM; in experiment [3] it was 0.018 µM; in experiment [4] it was 0.021 µM; in experiment [5] (Homo sapiens, PPC-1, 96 h), 0.021 µM; in experiment [6], 0.032 µM.

Turning to `COc1cc(NC(=O)[C@H]2CSC(c3ccccc3)=N2)cc(OC)c1OC`, the IC50 in experiment [2] (Homo sapiens, LNCaP, 96 h) was 16.8 µM; in experiment [3] it was 13.2 µM; in experiment [4], > 20 µM; in experiment [5] (Homo sapiens, PPC-1, 96 h), 3.4 µM; in experiment [6], 30.4 µM.

In the case of `O=C(c1csc(-c2ccccc2)n1)c1ccccc1F`, the half-maximal inhibitory concentration (IC50) in experiment [1] was > 100 µM; in experiment [2] (Homo sapiens, LNCaP, 96 h), > 20 µM; in experiment [3] it was > 20 µM; in experiment [4], > 20 µM; in experiment [5] (Homo sapiens, PPC-1, 96 h), > 20 µM; in experiment [6], > 100 µM.

Turning to `CCCCCCCCCCCCCCCCNC(=O)[C@@H]1CSC(c2ccc(NC(C)=O)cc2)N1` (mixture of isomers), the IC50 in experiment [1] turned out to be 2.1 µM; in experiment [2] (Homo sapiens, LNCaP, 96 h), 1 µM; in experiment [4], 1.7 µM; in experiment [5] (Homo sapiens, PPC-1, 96 h), 0.4 µM; in experiment [6] it was 2.2 µM.

On to `COc1cc(OC)cc(C(=O)c2csc(-c3ccccc3)n2)c1`, for which the IC50 in experiment [1] is 0.17 µM; in experiment [2] (Homo sapiens, LNCaP, 96 h), 0.323 µM; in experiment [3] it was 0.301 µM; in experiment [4], 0.424 µM; in experiment [5] (Homo sapiens, PPC-1, 96 h) it was 0.242 µM; in experiment [6], 0.35 µM.

Consider `COc1ccc(C(=O)c2csc(-c3ccccc3)n2)cc1`, for which the IC50 is > 100 µM in experiment [1]; > 20 µM in experiment [2] (Homo sapiens, LNCaP, 96 h); > 20 µM in experiment [3]; > 20 µM in experiment [4]; > 20 µM in experiment [5] (Homo sapiens, PPC-1, 96 h); > 100 µM in experiment [6].

Consider `O=C(c1ccccc1)c1csc(-c2ccccc2)n1`, for which the IC50 in experiment [1] is > 100 µM; in experiment [2] (Homo sapiens, LNCaP, 96 h), > 20 µM; in experiment [3] it was > 20 µM; in experiment [4], > 20 µM; in experiment [5] (Homo sapiens, PPC-1, 96 h), > 20 µM; in experiment [6] it was > 100 µM.

As to `COc1cc(NC(=O)c2csc(-c3ccccc3)n2)cc(OC)c1OC`, the half-maximal inhibitory concentration (IC50) in experiment [1] is > 100 µM; in experiment [2] (Homo sapiens, LNCaP, 96 h), > 20 µM; in experiment [3], > 20 µM; in experiment [4], > 20 µM; in experiment [5] (Homo sapiens, PPC-1, 96 h), > 20 µM; in experiment [6] it was > 100 µM.

Take `COc1cc(C(=O)c2csc(-c3ccncc3)n2)cc(OC)c1OC` [listing 1 of 2 here]: the IC50 in experiment [1] was > 100 µM; in experiment [2] (Homo sapiens, LNCaP, 96 h), > 20 µM; in experiment [3], > 20 µM; in experiment [4], > 20 µM; in experiment [5] (Homo sapiens, PPC-1, 96 h) it was > 20 µM; in experiment [6], > 100 µM.

For `COc1cccc(C(=O)c2csc(-c3ccccc3)n2)c1`, the IC50 is > 100 µM in experiment [1]; > 20 µM in experiment [2] (Homo sapiens, LNCaP, 96 h); > 20 µM in experiment [3]; > 20 µM in experiment [4]; > 20 µM in experiment [5] (Homo sapiens, PPC-1, 96 h); > 100 µM in experiment [6].

For the molecule `COc1cc(C(=O)c2csc(-c3cccs3)n2)cc(OC)c1OC`, the IC50 in experiment [1] was determined as 0.02 µM; in experiment [2] (Homo sapiens, LNCaP, 96 h), 0.009 µM; in experiment [4] it was 0.022 µM; in experiment [5] (Homo sapiens, PPC-1, 96 h), 0.013 µM; in experiment [6] it was 0.038 µM.

With `CC(=O)Nc1ccc(C2N[C@H](C(=O)Nc3ccc4c(c3)Cc3ccccc3-4)CS2)cc1` (mixture of isomers), the IC50 in experiment [2] (Homo sapiens, LNCaP, 96 h) was found to be 3.5 µM; in experiment [3], 2.1 µM; in experiment [4], 1.9 µM; in experiment [5] (Homo sapiens, PPC-1, 96 h), 1.6 µM.

Take `COc1cc(C(=O)c2csc(-c3cccc(F)c3)n2)cc(OC)c1OC`: the IC50 in experiment [1] is 0.304 µM; in experiment [2] (Homo sapiens, LNCaP, 96 h), 0.011 µM; in experiment [3], 0.024 µM; in experiment [4] it was 0.035 µM; in experiment [5] (Homo sapiens, PPC-1, 96 h), 0.021 µM; in experiment [6] it was 0.287 µM.

With `COc1cc(NC(=O)[C@@H]2CSC(c3ccccc3)N2)cc(OC)c1OC` (mixture of isomers), the IC50 in experiment [1] is > 100 µM; in experiment [2] (Homo sapiens, LNCaP, 96 h), > 20 µM; in experiment [3], > 20 µM; in experiment [4], > 20 µM; in experiment [5] (Homo sapiens, PPC-1, 96 h), > 20 µM; in experiment [6], > 100 µM.

With `O=C(c1cc(O)c(O)c(O)c1)c1csc(-c2ccccc2)n1`, the IC50 in experiment [1] was > 100 µM; in experiment [2] (Homo sapiens, LNCaP, 96 h), > 20 µM; in experiment [3] it was > 20 µM; in experiment [4] it was > 20 µM; in experiment [5] (Homo sapiens, PPC-1, 96 h), > 20 µM; in experiment [6], > 100 µM.

Regarding `COc1cc(C(=O)c2csc(-c3ccc(C(=O)O)cc3)n2)cc(OC)c1OC`, the IC50 was > 100 µM in experiment [1]; > 20 µM in experiment [2] (Homo sapiens, LNCaP, 96 h); > 20 µM in experiment [3]; > 20 µM in experiment [4]; > 20 µM in experiment [5] (Homo sapiens, PPC-1, 96 h); > 100 µM in experiment [6].

On to `CCCCCCCCCCCCCCCCC(=O)c1csc(-c2ccccc2)n1`, for which the IC50 in experiment [1] is 16 µM; in experiment [2] (Homo sapiens, LNCaP, 96 h), > 20 µM; in experiment [3] it was > 20 µM; in experiment [4], > 20 µM; in experiment [5] (Homo sapiens, PPC-1, 96 h), > 20 µM; in experiment [6] it was 18.6 µM.

Regarding `COc1cc(C(=O)c2csc(-c3ncccn3)n2)cc(OC)c1OC`, the IC50 in experiment [1] stood at 4.1 µM; in experiment [2] (Homo sapiens, LNCaP, 96 h), 2.37 µM; in experiment [3] it was 2.66 µM; in experiment [4], 2.81 µM; in experiment [5] (Homo sapiens, PPC-1, 96 h) it was 1.19 µM.

For `COC(=O)c1ccc(-c2nc(C(=O)c3cc(OC)c(OC)c(OC)c3)cs2)cc1`, the IC50 in experiment [1] was > 100 µM; in experiment [2] (Homo sapiens, LNCaP, 96 h) it was > 20 µM; in experiment [3], > 20 µM; in experiment [4] it was > 20 µM; in experiment [5] (Homo sapiens, PPC-1, 96 h), > 20 µM; in experiment [6] it was > 100 µM.

In the case of `COc1cc(C(=O)c2csc(-c3ccc(F)cc3)n2)cc(OC)c1OC`, the IC50 was determined as 0.033 µM in experiment [1]; 0.006 µM in experiment [2] (Homo sapiens, LNCaP, 96 h); 0.013 µM in experiment [3]; 0.043 µM in experiment [6].

On to `COc1cc(C(=O)c2csc(-c3ccc(C)cc3)n2)cc(OC)c1OC`, for which the IC50 turned out to be 0.011 µM in experiment [1]; 0.005 µM in experiment [3]; 0.007 µM in experiment [4]; 0.006 µM in experiment [5] (Homo sapiens, PPC-1, 96 h); 0.021 µM in experiment [6].

Take `COc1cc(C(=O)c2csc(-c3ccc([N+](=O)[O-])cc3)n2)cc(OC)c1OC`: the IC50 in experiment [2] (Homo sapiens, LNCaP, 96 h) turned out to be 0.039 µM; in experiment [3], 0.056 µM; in experiment [4], 0.095 µM; in experiment [5] (Homo sapiens, PPC-1, 96 h), 0.034 µM.

For the molecule `CCc1ccc(-c2nc(C(=O)c3cc(OC)c(OC)c(OC)c3)cs2)cc1`, the IC50 in experiment [2] (Homo sapiens, LNCaP, 96 h) stood at 0.06 µM; in experiment [3], 0.027 µM; in experiment [4], 0.031 µM; in experiment [5] (Homo sapiens, PPC-1, 96 h) it was 0.022 µM; in experiment [6] it was 0.07 µM.

As for `COc1cc(C(=O)c2csc(-c3ccc(C(F)(F)F)cc3)n2)cc(OC)c1OC`, the IC50 came out at 0.023 µM in experiment [1]; 0.094 µM in experiment [2] (Homo sapiens, LNCaP, 96 h); 0.058 µM in experiment [3]; 0.05 µM in experiment [4]; 0.076 µM in experiment [5] (Homo sapiens, PPC-1, 96 h).

Take `COc1cc(C(=O)c2csc(-c3ccncc3)n2)cc(OC)c1OC` [listing 2 of 2 here]: the half-maximal inhibitory concentration (IC50) stood at 16.6 µM in experiment [2] (lncap) and 18 µM in experiment [5] (ppc-1).

Values taken from ChEMBL document CHEMBL1152784, “Discovery of 4-substituted methoxybenzoyl-aryl-thiazole as novel anticancer agents: synthesis, biological evaluation, and structure-activity relationships” (J Med Chem, 2009).
